Data on 11 molecules can be found in PMC11468809, “An Outer Membrane Vesicle‐Based Permeation Assay (OMPA) for Assessing Bacterial Bioavailability” (Advanced Healthcare Materials, 2021).

The nature of data set [1]: Membrane permeabilization experiment on OMV-derived membrane. It counts as in vitro ADME, Escherichia coli. The settings on record: for effect of membrane-perturbating agent on the OMV-derived model: permeability of fusidic acid or fluorescein as readout. On the procedure:
Experiments were conducted on OMVs of E. coli BL21 DE3 Omp8 as stated above with some modifications. […] After 30 min, solutions were removed and the standard protocol was followed employing 200 × 10^−6 M fusidic acid solution and sampling after 5, 10, 15, 20, 25, 30, 45, and 60 min. The quantification was done via LC–MS/MS.
(§1) Afterward 240 µL of 10 × 10^−6 M fluorescein solution in PBS (pH 7.4) was added and 40 µL samples were drawn after 5, 10, 15, 20, 25, 30, 45, and 60 min and diluted 1 in 5 prior to fluorimetric quantification (λ ex = 485 nm, λ em = 530 nm).

Data set [2] in a line: Permeation across porin-deficient E. coli BL21 DE3 Omp8 OMV-derived membrane model. Particulars: standard permeation assay, 200 × 10^−6 M. On the procedure:
(§2) 30 µL of the OMV or liposome suspension were given on top of membrane filters of a 96‐well filter plate (MultiScreen 96‐well filter plates with 0.4 µm PCTE membrane). Afterwards, filters were dried at 37°C inside a Memmert UF55 universal oven (fan at 100%). This process was repeated another two times. A six‐fold coating procedure was only followed for SEM‐imaging purposes. For permeation studies, the obtained coatings were covered with 40 µl of 0.5% w/v agarose solution using a direct diplacement pipette. Prior to permeation studies, the bottom of the coated filter was also coated with a thin film of 0.5% w/v agarose using a small brush.
(§3) Coated wells were incubated on the apical and basolateral side for 30 min with PBS (pH 7.4) at 37°C while shaken at 180 rpm. After incubation, 230 µL of pre‐warmed 200 × 10^−6 M antibiotic donor solution (37°C) replaced the PBS in the respective donor wells, while 30 µL were immediately removed and diluted 1:10. The absorbance of these dilutions was measured in a receiver plate using a Tecan Infinite 200 PRO (Tecan Trading AG, Maennedorf, Switzerland) plate reader. (Table S1, Supporting Information) 300 µL of fresh PBS were given into the acceptor wells of the receiver plate followed by absorbance measurements. Donor and acceptor plates were reassembled, incubated, and disassembled after 10, 20, 30, 45, 60, 90, and 120 min to measure the absorbance in the acceptor wells.

The nature of data set [3]: Porin-blocking experiment with spermine on porin-deficient membrane model. Particulars: 15 × 10^−6 M norfloxacin, no spermine.
Procedure: (§4) Experiments were performed on OMVs of E. coli strains BL21 DE3 and BL21 DE3 Omp8. The procedure followed the standard protocol for permeability studies with some modifications. The membranes were incubated on both sides for 30 min either with 140 × 10^−3 M spermine solution in PBS (pH7.4) or blank PBS. […] Samples of 40 µL were taken after 5, 10, 15, 20, 25, and 30 min and analyzed by LC–MS/MS.
(§5) An Accela UHPLC System‐Coupled TSQ Quantum Access Max tandem quadrupole mass spectrometer (both from Thermo Fisher Scientific, Waltham, MA, USA) was employed. The entire system was operated via Xcalibur 219 software (Thermo Fisher Scientific, Waltham, MA, USA). The detection of the compounds in the MS happened after heated electrospray ionization (H‐ESI) in positive ion mode. The chromatographic analysis was performed with a binary solvent mixture using optionally acetonitrile + 0.1% formic acid (A), MilliQ‐water + 0.1% formic acid (B), methanol + 0.1% formic acid (C), or ammonium formate buffer (10 × 10^−3 M, pH 3, D). […]
(§6) Raw data obtained from the respective analytical readouts of transport studies were converted to their corresponding concentration via external calibration. […]
(§7) The apparent permeability coefficient (P app) was calculated according to the following formula: (2) Pappcm∗s^−1=J/c0 where c 0 is the initial donor concentration (µg cm^− ^3) and J (µg cm^− ^2*s) the compound flux.
Data set [4] in a line: Porin-blocking experiment with spermine on porin-containing membrane model. Particulars: 15 × 10^−6 M norfloxacin, 140 × 10^−3 M spermine; Figure 10B.
Procedure: as §4, §5, §6, §7
Data set [5] is described as follows: Impact of agarose gel and vesicle coating on compound permeation. The settings on record: P app; 0.5% w/v agarose gel; Figure 7. On the procedure:
as §2, §3

A short description of data set [6]: Membrane permeabilization experiment on bacteriomimetic liposome-derived model. It counts as in vitro ADME. The settings on record: fluorescein 10 × 10^−6 M after 30 min incubation with 83.1 × 10^−6 M PMB vs PBS. On the procedure: as §1
Data set [7] can be described thus: Comparison of P app among four vesicle-derived membrane models. It counts as in vitro ADME. The settings on record: 200 × 10^−6 M; Figure 11. The source says:
This process was repeated another two times.

For data set [8] the following is noted: not told. On the procedure: as §2
Coated wells were incubated on the apical and basolateral side for 30 min with PBS (pH 7.4) at 37°C while shaken at 180 rpm. […] The absorbance of these dilutions was measured in a receiver plate using a Tecan Infinite 200 PRO (Tecan Trading AG, Maennedorf, Switzerland) plate reader. (Table S1, Supporting Information) 300 µL of fresh PBS were given into the acceptor wells of the receiver plate followed by absorbance measurements. Donor and acceptor plates were reassembled, incubated, and disassembled after 10, 20, 30, 45, 60, 90, and 120 min to measure the absorbance in the acceptor wells.

As for `CC(=O)O[C@H]1C[C@@]2(C)[C@@H](C[C@@H](O)[C@H]3[C@@]4(C)CC[C@@H](O)[C@@H](C)[C@@H]4CC[C@@]32C)/C1=C(\CCC=C(C)C)C(=O)O` [Fusidic acid], the “change in permeability after membrane-perturbating agent” value in data set [1] (fusidic acid 200 × 10^−6 M after 30 min incubation with 103.8 × 10^−6 M PMBN vs PBS) was “none of the membrane‐perturbating agents caused significant changes”.

For the molecule `CCn1cc(C(=O)O)c(=O)c2cc(F)c(N3CCNCC3)cc21` [norfloxacin], the “permeability compared with the porin-containing BL21 DE3 OMV-derived model” value in data set [2] was “lower”. The “permeability compared with the porin-containing model” value in data set [3] is recorded as “significantly decreased permeability”. Besides, in data set [4], the “permeability coefficients in presence vs absence of spermine” value is listed as “significantly different”.

Turning to `CO[C@@H]1[C@@H](OC(N)=O)[C@@H](O)[C@H](Oc2ccc3c(O)c(NC(=O)c4ccc(O)c(CC=C(C)C)c4)c(=O)oc3c2C)OC1(C)C` [novobiocin], in data set [5], the “permeability with the vesicle coating compared to pure agarose gel coating” value is given as “significantly lower”.

As to `O=C1OC2(c3ccc(O)cc3Oc3cc(O)ccc32)c2ccccc21` [fluorescein], the “permeation after treatment with PMB” value in data set [6] is recorded as “permeated significantly slower”. Also, in data set [1] (fluorescein 10 × 10^−6 M after 30 min incubation with 83.1 × 10^−6 M PMB vs PBS), the “change in permeability after membrane-perturbating agent” value is “none of the membrane‐perturbating agents caused significant changes”.

As to `CN[C@H](CC(C)C)C(=O)N[C@H]1C(=O)N[C@@H](CC(N)=O)C(=O)N[C@H]2C(=O)N[C@H]3C(=O)N[C@H](C(=O)N[C@H](C(=O)O)c4cc(O)cc(O)c4-c4cc3ccc4O)[C@H](O)c3ccc(c(Cl)c3)Oc3cc2cc(c3O[C@@H]2O[C@H](CO)[C@@H](O)[C@H](O)[C@H]2O[C@H]2C[C@](C)(N)[C@H](O)[C@H](C)O2)Oc2ccc(cc2Cl)[C@H]1O` [vancomycin], the “trend of permeability the fewer outer membrane features the model has” value in data set [7] was “gradual decrease of permeability”.

For `CO[C@H]1/C=C/O[C@@]2(C)Oc3c(C)c(O)c4c(O)c(c(/C=N/N5CCN(C)CC5)c(O)c4c3C2=O)NC(=O)/C(C)=C\C=C\[C@H](C)[C@H](O)[C@@H](C)[C@@H](O)[C@@H](C)[C@H](OC(C)=O)[C@@H]1C` [rifampicin], the “difference in permeability throughout the OMV- and the bacteriomimetic liposome-based model” value in data set [7] is on record as “no significant difference”. In addition, in data set [8], the “permeability across the eukaryotic membrane model compared with the other models” value is “comparable permeability”. For the same molecule, the “permeability with the vesicle coating compared to pure agarose gel coating” value in data set [5] was “significantly lower”.

On to `CCn1cc(C(=O)O)c(=O)c2ccc(C)nc21` [nalidixic acid], for which, in data set [7], the “difference in permeability throughout the OMV- and the bacteriomimetic liposome-based model” value is “no significant difference”. The “permeability across the eukaryotic membrane model compared with the other models” value in data set [8] is reported as “increased”.

Turning to PMB nonapeptide [PMBN], the “effect of membrane-perturbating agent on the OMV-derived model” value in data set [1] is on record as “lack of effect”.

With Polymyxin B [PMB], the “effect of membrane-perturbating agent on the OMV-derived model” value in data set [1] is “lack of effect”.

Take `O=C(N[C@H](CO)[C@H](O)c1ccc([N+](=O)[O-])cc1)C(Cl)Cl` [chloramphenicol]: the “permeability compared with the porin-containing BL21 DE3 OMV-derived model” value in data set [2] is “did not lead to a significant drop of permeation”.

On to `CN(C)[C@@H]1C(O)=C(C(N)=O)C(=O)[C@@]2(O)C(O)=C3C(=O)c4c(O)cccc4[C@@](C)(O)[C@H]3C[C@@H]12` [tetracycline], for which the “permeability compared with the porin-containing BL21 DE3 OMV-derived model” value in data set [2] was “did not lead to a significant drop of permeation”. Further, the “permeability with the vesicle coating compared to pure agarose gel coating” value in data set [5] is on record as “significantly lower”.
